Laboratory results: publication PMC8912030, “Secondary Metabolites with Anti-Inflammatory from the Roots of Cimicifuga taiwanensis” (Molecules, 2022)
Read-outs that look alike come from different tables or passages of the source.

Assays:
[1] = tested on: LPS-activated NO production in RAW 264.7 macrophages; assay: Inhibition of LPS-induced NO production (Griess reagent assay, nitrite); format: cell-based, mouse; conditions: for IC50: Mus musculus, read-out: IC50 NO; for fold NO inhibitory activity compared with quercetin: ratio to quercetin IC50 34.58 μM; for NO inhibitory activity (in words): LPS-induced NO production in RAW 264.7
Protocol: The anti-inflammatory activities of the 5 isolates (2–6) in sufficient amounts were evaluated by examining their inhibitory effects on lipopolysaccharide (LPS)-induced inducible nitric oxide synthase (iNOS)-dependent NO 6 production in the murine macrophage cell line RAW 264.7 (Table 4). From the results of our anti-inflammatory tests, the following conclusions could be drawn.
(§1) The mouse macrophage cell line (RAW 264.7) was obtained from the Bioresource Collection and Research Center (BCRC 60001) and cultured at 37 °C in Dulbecco’s Modified Eagle’s Medium (DMEM) supplemented with 10% fetal bovine serum (Gibco), 4.5 g/L glucose, 4 mM glutamine, penicillin (100 units/mL), and streptomycin (100 μg/mL) in a humidified atmosphere in a 5% CO2 incubator. The cells were treated with 10, 25, and 50 μM of natural products in the presence of 1 μg/mL lipopolysaccharide (LPS, Sigma-Aldrich) for 20 h. The concentration of NO in the culture supernatants was determined to be nitrite, a major stable product of NO, by a Griess reagent assay, and cell viabilities were determined using the MTT assay as described previously.

[2] = Cell viability (MTT assay); format: cell-based, mouse; conditions: mouse
Protocol: (§2) The cytotoxic effects were tested using an MTT experiment.
as §1

[3] = tested on: RAW 264.7 macrophages; assay: Cell viability (MTT assay); format: cell-based, mouse
Protocol: as §2, §1

[4] = RAW264.7, RAW 264.7, 1 μg/mL LPS, 20 h, mean ± SEM (n = 4) of 3 independent experiments

Structure (SMILES)	IC50 [1, 4]	fold NO inhibitory activity compared with quercetin [1]	viability at 20 h, 50 µM [2]	Cell Viability (% Control) ([3]; 50 µM)	melting point	NO inhibitory activity (in words) [1]	NO inhibitory activity (in words) ([1]; listed as Cimicitaiwanin E)	IC50 ([1]; RAW264.7, 20 h)	Cell Viability (% Control) ([3]; RAW 264.7, MTT, mean ± SEM, concentration not given in table (text: 50 μM))
CC(=O)OC(C)(C)C1OC23OC1CC(C)C2C1(C)C(O)CC2=C(CCC4C5(CCC(O5)C4(C)C)C2)C1(C)C3O (stereo not drawn) [Compound 2, 25-O-acetyl-12β-hydroxyacerinol]	8.37 ± 3.25 µM	about four	< 80%	69.14 ± 2.87 % Control	–	–	–	–	–
CC(=O)OC(C)(C)C1OC23OC1CC(C)C2C1(C)CC(=O)C2=C(C(O)CC4C5(CCC(O5)C4(C)C)C2)C1(C)C3O (stereo not drawn) [Compound 3, 25-O-acetyl-7β-hydroxy-11-oxoacerinol]	6.54 ± 0.87 µM	five	95%	95.53 ± 3.39 % Control	103 to 105 °C	showed inhibitory activities	–	–	–
CC(=O)OC(C)(C)C1OC23OC1CC(C)C2C1(C)CCC2=C(CCC4C(=CCC(OC5OCC(O)C(O)C5O)C4(C)C)C2)C1(C)C3O (stereo not drawn) [Compound 4, cimicitaiwanin D]	10.1 ± 0.47 µM	three	91%	91.12 ± 4.22 % Control	–	showed inhibitory activities	–	–	–
CC1CC2OC3(OC2C(C)(C)O)C1C1(C)CCC24CC25C=CC(=O)C(C)(C)C5CC=C4C1(C)C3O (stereo not drawn) [Compound 5, cimicitaiwanin E]	–	–	89%	88.54 ± 1.50 % Control	–	moderate	showed inhibitory activities	24.6 ± 4.97 µM	–
CC(C=CC1C(C)CC(O)CC1(C)C)=CC(=O)O [Compound 6, rel-(2E,4E)-5-((3S,5R,6R,)-4-hydroxy-2,2,6-trimethylcyclohexyl)-3-methylpenta-2,4-dienoic acid]	15.4 ± 0.85 µM	two	87%	86.84 ± 2.95 % Control	–	showed inhibitory activities	–	–	–
O=c1c(O)c(-c2ccc(O)c(O)c2)oc2cc(O)cc(O)c12 [Quercetin, quercetin, reference compound]	34.6 ± 2.34 µM	–	–	–	–	–	–	–	95.56 ± 1.91 % Control
